Test results: ChEMBL document CHEMBL1146830, “Synthesis and biological evaluation of nonpeptide integrin antagonists containing spirocyclic scaffolds” (Bioorg Med Chem Lett, 2004)

Key:
[1] = target: Integrin alpha-V/beta-3 (Homo sapiens); test: Evaluated in an functional alpha-v beta-3 antagonism assay, involving adhesion of beta-3-transfected 293 cells to fibrinogen (alpha-v beta-3 293 beta3)
Integrin alpha-5/beta-1 = Integrin alpha-5/beta-1 (Homo sapiens, UniProt P05556+P08648); test: Alpha-5 beta-1 antagonism using an ELISA assay; type: functional
Chain of Integrin alpha-5/beta-1 (P05556 21-798 limits assumed): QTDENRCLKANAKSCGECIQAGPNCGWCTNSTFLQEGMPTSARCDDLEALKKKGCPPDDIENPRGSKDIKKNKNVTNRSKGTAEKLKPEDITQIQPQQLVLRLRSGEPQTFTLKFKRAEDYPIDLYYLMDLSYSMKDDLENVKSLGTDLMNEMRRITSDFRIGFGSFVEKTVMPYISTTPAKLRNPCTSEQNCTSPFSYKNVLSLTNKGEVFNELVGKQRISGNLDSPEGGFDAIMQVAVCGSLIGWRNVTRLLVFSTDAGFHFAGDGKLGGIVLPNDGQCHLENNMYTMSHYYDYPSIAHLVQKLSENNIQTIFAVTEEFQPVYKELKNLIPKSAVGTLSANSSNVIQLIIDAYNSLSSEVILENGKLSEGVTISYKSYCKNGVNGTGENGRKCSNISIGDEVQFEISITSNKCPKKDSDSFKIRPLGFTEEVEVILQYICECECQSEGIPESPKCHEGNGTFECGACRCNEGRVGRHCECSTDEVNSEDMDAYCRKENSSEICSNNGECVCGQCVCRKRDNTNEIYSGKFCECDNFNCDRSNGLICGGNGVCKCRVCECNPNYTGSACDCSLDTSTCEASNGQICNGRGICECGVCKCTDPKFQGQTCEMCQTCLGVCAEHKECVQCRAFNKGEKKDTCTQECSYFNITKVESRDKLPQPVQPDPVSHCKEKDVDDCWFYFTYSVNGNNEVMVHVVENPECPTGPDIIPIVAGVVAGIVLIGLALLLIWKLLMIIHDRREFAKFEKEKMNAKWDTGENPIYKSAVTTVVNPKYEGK
Chain of Integrin alpha-5/beta-1 (P08648 42-894 limits assumed): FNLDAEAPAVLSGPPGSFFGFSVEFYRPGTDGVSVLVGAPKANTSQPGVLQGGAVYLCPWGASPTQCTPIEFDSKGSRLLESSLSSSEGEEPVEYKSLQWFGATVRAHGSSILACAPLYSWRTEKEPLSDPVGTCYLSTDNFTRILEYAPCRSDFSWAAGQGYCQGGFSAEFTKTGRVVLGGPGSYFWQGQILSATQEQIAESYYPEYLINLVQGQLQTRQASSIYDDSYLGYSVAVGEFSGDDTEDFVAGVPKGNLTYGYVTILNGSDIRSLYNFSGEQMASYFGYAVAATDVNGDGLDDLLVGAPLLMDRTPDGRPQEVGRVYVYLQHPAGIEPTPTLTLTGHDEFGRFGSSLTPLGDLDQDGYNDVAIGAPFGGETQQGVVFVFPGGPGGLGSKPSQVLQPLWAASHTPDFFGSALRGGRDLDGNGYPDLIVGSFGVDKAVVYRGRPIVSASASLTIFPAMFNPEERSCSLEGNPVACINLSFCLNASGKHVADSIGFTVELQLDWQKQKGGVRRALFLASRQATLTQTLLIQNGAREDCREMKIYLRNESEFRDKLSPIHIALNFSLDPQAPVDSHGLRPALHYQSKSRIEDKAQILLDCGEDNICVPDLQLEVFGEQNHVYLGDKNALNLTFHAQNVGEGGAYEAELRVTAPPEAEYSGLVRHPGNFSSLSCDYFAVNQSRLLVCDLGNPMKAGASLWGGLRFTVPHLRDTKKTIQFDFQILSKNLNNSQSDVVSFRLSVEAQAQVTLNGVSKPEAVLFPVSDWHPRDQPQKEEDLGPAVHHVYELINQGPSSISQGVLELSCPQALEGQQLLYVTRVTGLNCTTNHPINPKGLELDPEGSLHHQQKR
Chain of Integrin alpha-5/beta-1 (P08648 895-1049 limits assumed): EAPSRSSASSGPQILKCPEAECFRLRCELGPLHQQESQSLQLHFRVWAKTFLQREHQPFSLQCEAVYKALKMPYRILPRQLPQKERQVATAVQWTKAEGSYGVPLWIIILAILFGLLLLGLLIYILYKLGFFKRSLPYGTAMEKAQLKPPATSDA

[2] = target: Integrin alpha-V/beta-3 and alpha-IIb/beta 3 (Homo sapiens, UniProt P05106+P06756+P08514); test: Inhibition of platelet aggregation in human platelet-rich plasma alpha IIb beta-3 integrin to assess the selectivity for the alpha-v beta-3 over the GPIIb/IIIa integrin receptor

Row | IC50 [1] | IC50 (Integrin alpha-5/beta-1) | IC50 [2] | SMILES
1 | 87 nM | 0.39 nM | – | CCCCOC(=O)N1C[C@@]2(CC(C(=O)NC[C@H](NS(=O)(=O)c3c(C)cc(C)cc3C)C(=O)O)=NO2)C[C@H]1CNc1nc2ccccc2[nH]1
2 | – | 13 nM | 7300 nM | Cc1cc(C)c(S(=O)(=O)N[C@@H](CNC(=O)C2=NO[C@]3(C2)C[C@@H](CNC2=NCCN2)N(C(=O)OCc2ccccc2)C3)C(=O)O)c(C)c1
3 | 180 nM | 230 nM | 1400 nM | Cc1cc(C)c(S(=O)(=O)N[C@@H](CNC(=O)C2=NO[C@]3(CN[C@H](CNc4ncc[nH]4)C3)C2)C(=O)O)c(C)c1
4 | 130 nM | 14 nM | 11000 nM | CCCCOC(=O)N1C[C@@]2(CC(C(=O)NC[C@H](NS(=O)(=O)c3c(C)cc(C)cc3C)C(=O)O)=NO2)C[C@H]1CNc1ncc[nH]1
5 | – | 1200 nM | 9200 nM | Cc1cc(C)c(S(=O)(=O)N[C@@H](CNC(=O)C2=NO[C@@]3(C2)C[C@@H](CNC2=NCCN2)N(C(=O)OCc2ccccc2)C3)C(=O)O)c(C)c1
6 | 49 nM | 0.18 nM | > 100000 nM | Cc1cc(C)c(S(=O)(=O)N[C@@H](CNC(=O)C2=NO[C@]3(C2)C[C@@H](CNc2ccccn2)N(C(=O)OCc2ccccc2)C3)C(=O)O)c(C)c1
7 | 74 nM | – | > 100000 nM | Cc1cc(C)c(S(=O)(=O)N[C@@H](CNC(=O)C2=NO[C@]3(C2)C[C@@H](CNc2nc4ccccc4[nH]2)N(C(=O)OCc2ccccc2)C3)C(=O)O)c(C)c1
8 | 41 nM | 18 nM | 34000 nM | Cc1cc(C)c(S(=O)(=O)N[C@@H](CNC(=O)C2=NO[C@]3(C2)C[C@@H](CNc2ncc[nH]2)N(C(=O)OCc2ccccc2)C3)C(=O)O)c(C)c1
9 | 32 nM | 39 nM | 5600 nM | Cc1cc(C)c(S(=O)(=O)N[C@@H](CNC(=O)C2=NO[C@]3(C2)C[C@@H](CNc2ncc[nH]2)N(C(=O)OCc2cccnc2)C3)C(=O)O)c(C)c1
10 | 57 nM | 21 nM | 7300 nM | COC(=O)N1C[C@@]2(CC(C(=O)NC[C@H](NS(=O)(=O)c3c(C)cc(C)cc3C)C(=O)O)=NO2)C[C@H]1CNc1ncc[nH]1
11 | 34 nM | 1.4 nM | > 100000 nM | COC(=O)N1C[C@@]2(CC(C(=O)NC[C@H](NS(=O)(=O)c3c(C)cc(C)cc3C)C(=O)O)=NO2)C[C@H]1CNc1nc2ccccc2[nH]1
